Patent publication US8952008B2, “Chemical compounds” (Pfizer Limited, priority 2012, dated 2015)

target: GABRA1-GABRB3-GABRG2 chloride currents in HEK cells (Homo sapiens (Human), UniProt P14867+P18507); assay: QPatch electrophysiological recording, % enhancement of GABA current (α1 PAM); format: cell-based; details: approximately EC10 GABA, −60 mV, whole-cell patch clamp
Description: (§1) Cell suspension containing HEK cells expressing GABRA2-GABRB2-GABRG2 was placed on the QPatch instrument in serum-free medium into the instrument's cell stirrer. The instrument washed the cells once using extracellular buffer and then dispensed them into the QPlate HT measurement plate at a concentration of 3-4-e6/ml. […] All recordings were made at room temperature (22-24° C.).
(§2) Current records were acquired at 1 KHz and filtered at 0.3 KHz using the Bessel filter. Series resistance compensation was set to 80% in the QPatch software.
(§3) All compounds were dissolved in dimethyl sulfoxide to make 30 mM or 10 mM stock solutions, which were then diluted to 1000 times the desired final concentration in dimethyl sulfoxide. These were diluted into extracellular solution to attain the final concentrations desired. […] This concentration of dimethyl sulfoxide was present in all samples.
(§4) Currents were recorded at −60 mV, using an approximately EC10 concentration of gamma-aminobutyric acid (GABA). This dose of gamma-aminobutyric acid was applied for 6 seconds and washed off using extracellular buffer as an unrecorded application using the pipetting system of the QPatch instrument. The same dose of gamma-aminobutyric acid was then applied for 9 seconds, then the test compound was co-applied with this dose of gamma-aminobutyric acid for 15 seconds, and washed off using the extracellular solution using the pipetting system of the QPatch instrument.
(§5) Compound effect (% enhancement of gamma-aminobutyric acid current) was calculated using the following formula: [((peak modulator current amplitude-leak)−(GABA current amplitude-leak))/(GABA current amplitude-leak)]*100, where ‘leak’ is leak current at −60 mV, ‘peak modulator current amplitude’ is the current elicited by co-application of gamma-aminobutyric acid and test compound, and ‘GABA current amplitude’ is the current elicited by application of gamma-aminobutyric acid alone.
The ability of the compounds of the formula (I) to modulate the GABA channels expressing the al subunit (or GABRA1) can also be measured using an assay analogous to that described above but replacing the GABRA2-GABRB2-GABRG2 gene construct with the GABRA1-GABRB3-GABRG2 gene construct. All other conditions remain the same including the same cell line and conditions for cell growth.

Chain of GABRA1-GABRB3-GABRG2 chloride currents in HEK cells (P14867 28-456): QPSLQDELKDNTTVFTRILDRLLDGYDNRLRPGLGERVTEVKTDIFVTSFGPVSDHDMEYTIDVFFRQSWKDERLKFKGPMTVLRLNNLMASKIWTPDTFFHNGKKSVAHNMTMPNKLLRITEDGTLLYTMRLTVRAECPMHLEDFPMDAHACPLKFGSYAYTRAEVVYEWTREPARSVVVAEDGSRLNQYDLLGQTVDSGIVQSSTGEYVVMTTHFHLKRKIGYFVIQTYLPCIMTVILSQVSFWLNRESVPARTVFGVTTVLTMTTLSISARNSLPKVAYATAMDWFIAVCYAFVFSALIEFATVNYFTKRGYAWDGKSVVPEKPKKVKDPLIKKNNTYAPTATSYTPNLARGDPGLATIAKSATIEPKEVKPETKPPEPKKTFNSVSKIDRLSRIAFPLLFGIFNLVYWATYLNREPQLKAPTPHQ
Chain of GABRA1-GABRB3-GABRG2 chloride currents in HEK cells (P28472 26-473 partner): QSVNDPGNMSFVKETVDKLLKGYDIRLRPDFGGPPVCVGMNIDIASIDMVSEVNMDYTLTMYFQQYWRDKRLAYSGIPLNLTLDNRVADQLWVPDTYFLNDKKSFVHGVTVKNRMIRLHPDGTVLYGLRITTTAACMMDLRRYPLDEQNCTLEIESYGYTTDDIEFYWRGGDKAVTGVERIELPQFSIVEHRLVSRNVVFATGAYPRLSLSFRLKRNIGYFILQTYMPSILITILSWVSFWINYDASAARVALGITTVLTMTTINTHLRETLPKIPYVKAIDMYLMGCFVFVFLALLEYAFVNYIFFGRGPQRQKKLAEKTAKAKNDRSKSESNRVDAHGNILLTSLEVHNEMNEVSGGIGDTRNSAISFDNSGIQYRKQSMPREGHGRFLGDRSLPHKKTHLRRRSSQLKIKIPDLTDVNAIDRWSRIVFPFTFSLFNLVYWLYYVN
Chain of GABRA1-GABRB3-GABRG2 chloride currents in HEK cells (P18507 40-475): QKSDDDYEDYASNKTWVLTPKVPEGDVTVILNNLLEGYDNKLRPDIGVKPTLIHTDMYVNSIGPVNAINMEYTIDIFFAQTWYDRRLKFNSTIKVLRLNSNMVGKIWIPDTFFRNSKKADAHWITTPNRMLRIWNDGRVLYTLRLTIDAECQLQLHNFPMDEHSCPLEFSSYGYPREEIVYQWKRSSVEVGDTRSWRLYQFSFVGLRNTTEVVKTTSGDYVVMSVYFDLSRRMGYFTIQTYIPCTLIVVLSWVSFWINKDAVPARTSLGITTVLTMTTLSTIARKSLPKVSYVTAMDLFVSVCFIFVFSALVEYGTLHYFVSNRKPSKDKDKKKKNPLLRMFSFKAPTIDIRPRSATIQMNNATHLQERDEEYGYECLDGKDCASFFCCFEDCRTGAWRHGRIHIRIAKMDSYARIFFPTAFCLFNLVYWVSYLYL

Q: How did the “α1 PAM (%)” value turn out when CCn1cnc2c(-c3ccc(O)c(-c4ccc(S(=O)(=O)CC)cc4OC)c3)cnnc21 [Example 48, 5-(7-Ethyl-7H-imidazo[4,5-c]pyridazin-4-yl)-4′-(ethylsulfonyl)-2′-methoxy-[1,1′-biphenyl]-2-ol] was run?
A: The value was −5.53%.

Q: How did the “α1 PAM (%)” value turn out when CCn1cnc2c(-c3ccc(F)c(-c4ccc(S(=O)(=O)CC)cc4OC)c3)cnnc21 [Example 4, 7-Ethyl-4-[4′-(ethylsulfonyl)-6-fluoro-2′-methoxybiphenyl-3-yl]-7H-imidazo[4,5-c]pyridazine] was run?
A: Its value is 18.1%.

Q: How did the “α1 PAM (%)” value turn out when CCn1cnc2c(-c3ccc(F)c(-c4ccc(S(=O)(=O)NC)cc4)c3)cnnc21 [Example 8, 5′-(7-Ethyl-7H-imidazo[4,5-c]pyridazin-4-yl)-2′-fluoro-N-methylbiphenyl-4-sulfonamide] was run?
A: The value was −55.1%.

Q: CCn1cnc2c(-c3ccc(F)c(-c4ccc(S(C)(=O)=O)cc4OC)c3)cnnc21 [Example 12, 7-Ethyl-4-(6-fluoro-2′-methoxy-4′-(methylsulfonyl)-[1,1′-biphenyl]-3-yl)-7H-imidazo[4,5-c]pyridazine] was tested. Which “α1 PAM (%)” value did it give?
A: Its value is 3.66%.

Q: For CCn1cnc2c(-c3ccc(F)c(-c4ccc(S(=O)(=O)CC)cc4C(F)F)c3)cnnc21 [Example 14, 4-(2′-(Difluoromethyl)-4′-(ethylsulfonyl)-6-fluoro-[1,1′-biphenyl]-3-yl)-7-ethyl-7H-imidazo[4,5-c]pyridazine], which “α1 PAM (%)” value is on record?
A: Its value is 13.3%.

target: GABRA2-GABRB2-GABRG2 chloride currents in HEK cells (Homo sapiens (Human), UniProt P18507+P47869); assay: QPatch electrophysiological recording, % enhancement of GABA current (α2 PAM); format: cell-based; details: approximately EC10 GABA, −60 mV, whole-cell patch clamp
Description: Human Embryonic Kidney (HEK) cells were transfected with a GABRA2-GABRB2-GABRG2 construct using standard techniques.
For QPatch electrophysiology testing, cells were harvested from flasks by enzymatic dissociation and resuspended in serum-free medium. Cells were typically used for electrophysiological experiments within 24 to 72 hours after splitting.
as §1, §2, §3, §4, §5

Chain of GABRA2-GABRB2-GABRG2 chloride currents in HEK cells (P47869 29-451): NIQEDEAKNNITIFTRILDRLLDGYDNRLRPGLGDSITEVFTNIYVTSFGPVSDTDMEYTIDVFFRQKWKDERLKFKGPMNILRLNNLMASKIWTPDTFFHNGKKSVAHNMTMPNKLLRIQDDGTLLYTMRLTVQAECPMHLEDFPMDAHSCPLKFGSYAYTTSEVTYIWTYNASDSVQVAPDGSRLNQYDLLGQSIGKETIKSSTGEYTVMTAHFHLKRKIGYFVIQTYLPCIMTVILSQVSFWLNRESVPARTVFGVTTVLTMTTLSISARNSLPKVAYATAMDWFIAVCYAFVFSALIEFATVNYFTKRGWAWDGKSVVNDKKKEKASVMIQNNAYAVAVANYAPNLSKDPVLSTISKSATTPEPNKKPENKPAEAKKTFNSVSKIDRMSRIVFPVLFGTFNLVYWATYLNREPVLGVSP
Chain of GABRA2-GABRB2-GABRG2 chloride currents in HEK cells (P47870 26-512 partner): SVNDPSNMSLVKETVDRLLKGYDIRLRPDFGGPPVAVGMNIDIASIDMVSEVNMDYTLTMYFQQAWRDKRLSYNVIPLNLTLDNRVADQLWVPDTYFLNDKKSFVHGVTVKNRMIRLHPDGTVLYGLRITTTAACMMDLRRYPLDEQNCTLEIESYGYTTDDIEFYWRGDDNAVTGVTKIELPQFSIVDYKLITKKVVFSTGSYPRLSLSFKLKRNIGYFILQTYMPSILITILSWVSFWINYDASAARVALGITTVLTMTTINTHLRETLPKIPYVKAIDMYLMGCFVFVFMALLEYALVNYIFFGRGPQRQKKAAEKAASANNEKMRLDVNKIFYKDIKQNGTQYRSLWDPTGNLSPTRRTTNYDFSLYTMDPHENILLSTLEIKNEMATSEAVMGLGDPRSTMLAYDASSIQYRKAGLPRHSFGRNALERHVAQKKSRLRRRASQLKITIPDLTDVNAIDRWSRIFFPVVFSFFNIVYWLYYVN
Chain of GABRA2-GABRB2-GABRG2 chloride currents in HEK cells (P18507 40-475): as the sequence (P18507 40-475) above

Q: For CCn1cnc2c(-c3ccc(O)c(-c4ccc(S(=O)(=O)CC)cc4OC)c3)cnnc21 [Example 48, 5-(7-Ethyl-7H-imidazo[4,5-c]pyridazin-4-yl)-4′-(ethylsulfonyl)-2′-methoxy-[1,1′-biphenyl]-2-ol], which “α2 PAM (%)” value is on record?
A: Its value is 47.8%.

Q: Which “α2 PAM (%)” value does the source give for CCn1cnc2c(-c3ccc(C#N)c(-c4ccc(S(=O)(=O)CC)cc4OC)c3)cnnc21 [Example 47, 5-(7-Ethyl-7H-imidazo[4,5-c]pyridazin-4-yl)-4′-(ethylsulfonyl)-2′-methoxy-[1,1′-biphenyl]-2-carbonitrile] here?
A: The value was 68.7%.

Q: With CCn1cnc2c(-c3ccc(F)c(-c4ccc(S(=O)(=O)NC)cc4)c3)cnnc21 [Example 8, 5′-(7-Ethyl-7H-imidazo[4,5-c]pyridazin-4-yl)-2′-fluoro-N-methylbiphenyl-4-sulfonamide] as the molecule, how does the “α2 PAM (%)” value read?
A: The value was 19.4%.

Q: With CCn1cnc2c(-c3ccc(F)c(-c4ccc(S(=O)(=O)CC)cc4)c3)cnnc21 [Example 49, 7-Ethyl-4-[4′-(ethylsulfonyl)-6-fluorobiphenyl-3-yl]-7H-imidazo[4,5-d]pyridazine] as the molecule, how does the “α2 PAM (%)” value read?
A: Its value is 83.9%.

Q: How did the “α2 PAM (%)” value turn out when CCn1cnc2c(-c3ccc(F)c(-c4ccc(S(=O)(=O)CC)cc4F)c3)cnnc21 [Example 15, 4-(4′-Ethanesulfonyl-6,2′-difluoro-biphenyl-3-yl)-7-ethyl-7H-imidazo[4,5-c]pyridazine] was run?
A: Its value is 39.4%.

Q: Which “α2 PAM (%)” value does the source give for NS(=O)(=O)c1ccc(-c2cc(-c3cnnc4c3ncn4C3CC3)ccc2F)cc1 [Example 20, 5′-(7-Cyclopropyl-7H-imidazo[4,5-c]pyridazin-4-yl)-2′-fluoro-[1,1′-biphenyl]-4-sulfonamide] here?
A: The value was 36.3%.

Q: How did the “α2 PAM (%)” value turn out when CCn1cnc2c(-c3ccc(Cl)c(-c4ccc(S(=O)(=O)CC)cc4OC)c3)cnnc21 [Example 45, 4-(6-Chloro-4′-(ethylsulfonyl)-2′-methoxy-[1,1′-biphenyl]-3-yl)-7-ethyl-7H-imidazo[4,5-c]pyridazine] was run?
A: The value was 61.1%.

Q: How did the “α2 PAM (%)” value turn out when CCn1cnc2c(-c3ccc(F)c(-c4ccc(S(C)(=O)=O)cc4)c3)cnnc21 [Example 9, 7-Ethyl-4-[6-fluoro-4′-(methylsulfonyl)biphenyl-3-yl]-7H-imidazo[4,5-c]pyridazine] was run?
A: Its value is 38.9%.

Q: With CCn1cnc2c(-c3ccc(F)c(-c4ccc(S(C)(=O)=O)cc4OC)c3)cnnc21 [Example 12, 7-Ethyl-4-(6-fluoro-2′-methoxy-4′-(methylsulfonyl)-[1,1′-biphenyl]-3-yl)-7H-imidazo[4,5-c]pyridazine] as the molecule, how does the “α2 PAM (%)” value read?
A: Its value is 39.1%.

Q: How did the “α2 PAM (%)” value turn out when CCn1cnc2c(-c3ccc(F)c(-c4ccc(S(=O)(=O)CC)cc4C(F)F)c3)cnnc21 [Example 14, 4-(2′-(Difluoromethyl)-4′-(ethylsulfonyl)-6-fluoro-[1,1′-biphenyl]-3-yl)-7-ethyl-7H-imidazo[4,5-c]pyridazine] was run?
A: The value was 58.0%.

target: human recombinant GABA A receptor containing the alpha2, beta2, and gamma3 subunits (Homo sapiens, UniProt P47869+Q99928); assay: Radioligand competition binding assay with [3H]Ro-15-1788 (Flumazenil); details: not given;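 note: membranes from HEK cells expressing the receptor, incubated with radioligand to equilibrium, filter-bound radioactivity counted, Ki reported as geometric mean of replicate runs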

Q: CCS(=O)(=O)c1ccc(-c2cc(-c3cnnc4c3ncn4C3CCCC3)ccc2F)c(OC)c1 [Example 43, 7-Cyclopentyl-4-(4′-(ethylsulfonyl)-6-fluoro-2′-methoxy-[1,1′-biphenyl]-3-yl)-7H-imidazo[4,5-c]pyridazine] was tested. Which Ki did it give?
A: The Ki was 118 nM.

Q: For CCS(=O)(=O)c1ccc(-c2cc(-c3cnnc4c3ncn4C3CC3)ccc2F)c(F)c1 [Example 22, 7-Cyclopropyl-4-(4′-(ethylsulfonyl)-2′,6-difluoro-[1,1′-biphenyl]-3-yl)-7H-imidazo[4,5-c]pyridazine], which Ki is on record?
A: Its Ki is 67.8 nM.

Q: Which Ki does the source give for CCS(=O)(=O)c1ccc(-c2cc(-c3cnnc4c3ncn4C3CCC3)ccc2F)c(F)c1 [Example 26, 7-Cyclobutyl-4-(4′-(ethylsulfonyl)-2′,6-difluoro-[1,1′-biphenyl]-3-yl)-7H-imidazo[4,5-c]pyridazine] here?
A: Its Ki is 147 nM.

Q: For CCn1cnc2c(-c3ccc(OC)c(-c4ccc(S(=O)(=O)CC)cc4OC)c3)cnnc21 [Example 46, 7-Ethyl-4-(4′-(ethylsulfonyl)-2′,6-dimethoxy-[1,1′-biphenyl]-3-yl)-7H-imidazol[4,5-c]pyridazine], which Ki is on record?
A: Its Ki is 1750 nM.

Q: For CCCn1cnc2c(-c3ccc(F)c(-c4ccc(S(=O)(=O)CC)cc4)c3)cnnc21 [Example 30, 4-[4′-(Ethylsulfonyl)-6-fluorobiphenyl-3-yl]-7-propyl-7H-imidazo[4,5-d]pyridazine], which Ki is on record?
A: Its Ki is 120 nM.

Q: How did the Ki turn out when CCS(=O)(=O)c1ccc(-c2cc(-c3cnnc4c3ncn4C3CCC3)ccc2F)cc1 [Example 28, 7-Cyclobutyl-4-[4′-(ethylsulfonyl)-6-fluorobiphenyl-3-yl]-7H-imidazol[4,5-c]pyridazine] was run?
A: The Ki was 74.3 nM.

Q: CCn1cnc2c(-c3cccc(-c4ccc5c(c4)CCS5(=O)=O)c3)cnnc21 [Example 17, 4-[3-(1,1-dioxido-2,3-dihydro-1-benzothiophen-5-yl)phenyl]-7-ethyl-7H-imidazo[4,5-c]pyridazine] was tested. Which Ki did it give?
A: The Ki was 102 nM.

Q: With CCS(=O)(=O)c1ccc(-c2cc(-c3cnnc4c3ncn4C(C)C)ccc2F)c(OC)c1 [Example 40, 4-(4′-(Ethylsulfonyl)-6-fluoro-2′-methoxy-[1,1′-biphenyl]-3-yl)-7-isopropyl-7H-imidazo[4,5-c]pyridazine] as the molecule, how does the Ki read?
A: Its Ki is 14 nM.

Q: How did the Ki turn out when CCn1cnc2c(-c3ccc(F)c(-c4ccc(S(=O)(=O)C(C)C)cc4C#N)c3)cnnc21 [Example 5, 5′-(7-Ethyl-7H-imidazo[4,5-c]pyridazin-4-yl)-2′-fluoro-4-(isopropylsulfonyl)-[1,1′-biphenyl]-2-carbonitrile] was run?
A: The Ki was 108 nM.

Q: With CCS(=O)(=O)c1ccc(-c2cc(-c3cnnc4c3ncn4C(C)C)ccc2F)c(Cl)c1 [Example 39, 4-(2′-Chloro-4′-(ethylsulfonyl)-6-fluoro-[1,1′-biphenyl]-3-yl)-7-isopropyl-7H-imidazo[4,5-c]pyridazine] as the molecule, how does the Ki read?
A: Its Ki is 14.4 nM.

Q: With CCS(=O)(=O)c1ccc(-c2cc(-c3cnnc4c3ncn4C3(C)CC3)ccc2F)cc1 [Example 27, 4-[4′-(Ethylsulfonyl)-6-fluorobiphenyl-3-yl]-7-(1-methylcyclopropyl)-7H-imidazo[4,5-c]pyridazine] as the molecule, how does the Ki read?
A: Its Ki is 34.8 nM.

Q: For CCn1cnc2c(-c3ccc(OC)c(-c4ccc(S(=O)(=O)CC)cc4F)c3)cnnc21 [Example 44, 7-Ethyl-4-(4′-(ethylsulfonyl)-2′-fluoro-6-methoxy-[1,1′-biphenyl]-3-yl)-7H-imidazo[4,5-c]pyridazine], which Ki is on record?
A: The Ki was 678 nM.

Q: With CC(C)n1cnc2c(-c3ccc(F)c(-c4ccc(S(=O)(=O)C(C)C)cc4C#N)c3)cnnc21 [Example 35, 2′-Fluoro-5′-(7-isopropyl-7H-imidazo[4,5-c]pyridazin-4-yl)-4-(isopropylsulfonyl)-[1,1′-biphenyl]-2-carbonitrile] as the molecule, how does the Ki read?
A: Its Ki is 38.8 nM.

Q: NS(=O)(=O)c1ccc(-c2cc(-c3cnnc4c3ncn4C3CC3)ccc2F)cc1 [Example 20, 5′-(7-Cyclopropyl-7H-imidazo[4,5-c]pyridazin-4-yl)-2′-fluoro-[1,1′-biphenyl]-4-sulfonamide] was tested. Which Ki did it give?
A: Its Ki is 19 nM.

Q: COc1cc(S(=O)(=O)C(C)C)ccc1-c1cc(-c2cnnc3c2ncn3C2CC2)ccc1F [Example 23, 7-Cyclopropyl-4-(6-fluoro-4′-(isopropylsulfonyl)-2′-methoxy-[1,1′-biphenyl]-3-yl)-7H-imidazo[4,5-c]pyridazine] was tested. Which Ki did it give?
A: Its Ki is 40.5 nM.

Q: Which Ki does the source give for CC(C)n1cnc2c(-c3ccc(F)c(-c4ccc(S(=O)(=O)C(C)C)cc4F)c3)cnnc21 [Example 36, 4-(2′,6-Difluoro-4′-(isopropylsulfonyl)-[1,1′-biphenyl]-3-yl)-7-isopropyl-7H-imidazo[4,5-c]pyridazine] here?
A: Its Ki is 87.4 nM.

Q: CC(C)S(=O)(=O)c1ccc(-c2cc(-c3cnnc4c3ncn4C3CC3)ccc2F)c(C#N)c1 [Example 18] was tested. Which Ki did it give?
A: The Ki was 296 nM.

Q: CCn1cnc2c(-c3ccc(F)c(-c4ccc(S(=O)(=O)C5CCC5)cc4OC)c3)cnnc21 [Example 6, 4-(4′-(Cyclobutylsulfonyl)-6-fluoro-2′-methoxy-[1,1-biphenyl]-3-yl)-7-ethyl-7H-imidazo[4,5-c]pyridazine] was tested. Which Ki did it give?
A: The Ki was 9.51 nM.

Q: CCn1cnc2c(-c3cccc(-c4ccc(S(C)(=O)=O)cc4)c3)cnnc21 [Example 16, 7-Ethyl-4-[4′-(methylsulfonyl)biphenyl-3-yl]-7H-imidazo[4,5-c]pyridazine] was tested. Which Ki did it give?
A: The Ki was 56 nM.

same assay, conditions: read-out: GABA-α2 Ki; competition with [3H]Ro-15-1788; HEK cell membranes; geometric mean of at least two replicates

Q: Which Ki does the source give for “7-Ethyl-4-[4-fluoro-3-(2-methyl-1,1-dioxido-2,3-di hydro-1,2-benzisothiazol-5-yl)phenyl]-7H-imidazo[4,5-d]pyridazine [Example 50]” here?
A: Its Ki is 69.5 nM.
